In patent publication US20170107203A1, “HETEROCYCLIC INHIBITORS OF THE SODIUM CHANNEL” (EPIRUS BIOPHARMACEUTICALS, INC., priority 2014, published 2017):
Each block holds one molecule with its values, some of them ahead of it.

Molecular target: T1, human Nav1.7 (Homo sapiens, UniProt Q15858)
T1 construct: expressed in transfected cells
Test: Assessment of Nav1.7 activity on PatchXpress (voltage dependence / slow inactivation parameters)
Format: cell-based
Conditions: compound at 10 μM, relative to 0.2% DMSO vehicle control; for hNav1.7: Reduction in current at 20 mV (normalized data) Delta Ratio: before/after 30 sec conditioning pulse at 20 mV; for hNav1.7: Shift in voltage dependence of inactivation (mV) Delta Vhalf: PatchXpress
Experimental: The generation of a HEK 293F cell line stably expressing human Nav1.7/Navp1 was achieved by co-transfecting human SCN9A and human SCN1B cDNAs, subcloned into plasmid vectors, utilizing standard transfection techniques. Clones were selected using appropriate selection agents (0.3 mg/mL Zeocin and 0.8 mg/mL Geneticin) and maintained in Dulbecco's Modified Eagle medium, 10% fetal bovine serum, 1% non-essential amino acids to ˜80% confluence at 37° C. in a humidified incubator with 95% atmosphere and 5% CO2.
On the day of each experiment, cells that were grown to 80% confluence in a T75 flask were harvested for use on PatchXpress (Molecular Devices, CA, USA). Following a recovery period at 37° C. in a humidified incubator with 95% atmosphere and 5% CO2 in Dulbecco's Modified Eagle Medium, the media was replaced with an external recording solution containing (in mM): 90 TEACI, 50 NaCl, 1.8 CaCl2, 1 MgCl2, 10 HEPES, 10 glucose, adjusted to pH 7.4 with TEAOH and 300 mOsm with sucrose. The internal recording solution contained (in mM): 129 CsF, 2 MgCl2, 11 EGTA, 10 HEPES, 6 NaCl, 3 Na2ATP adjusted to pH 7.2 with CsOH and 280 mOsm with sucrose. The automated liquid handling facility of PatchXpress dispensed cells and added compound. Modulation of Nav1.7 channels by compounds was assessed by promoting the channels into the inactivated state using a conditioning voltage pulse of variable amplitude, followed by a brief hyperpolarizing pulse with a subsequent depolarized voltage step to measure the current amplitude in the presence and absence of compound. Compounds were assayed at 10 μM. Based upon this Patch express protocol, four electrophysiological parameters were measured relative to a 0.2% DMSO vehicle control (Table 2).

T1 sequence (Q15858 whole entry): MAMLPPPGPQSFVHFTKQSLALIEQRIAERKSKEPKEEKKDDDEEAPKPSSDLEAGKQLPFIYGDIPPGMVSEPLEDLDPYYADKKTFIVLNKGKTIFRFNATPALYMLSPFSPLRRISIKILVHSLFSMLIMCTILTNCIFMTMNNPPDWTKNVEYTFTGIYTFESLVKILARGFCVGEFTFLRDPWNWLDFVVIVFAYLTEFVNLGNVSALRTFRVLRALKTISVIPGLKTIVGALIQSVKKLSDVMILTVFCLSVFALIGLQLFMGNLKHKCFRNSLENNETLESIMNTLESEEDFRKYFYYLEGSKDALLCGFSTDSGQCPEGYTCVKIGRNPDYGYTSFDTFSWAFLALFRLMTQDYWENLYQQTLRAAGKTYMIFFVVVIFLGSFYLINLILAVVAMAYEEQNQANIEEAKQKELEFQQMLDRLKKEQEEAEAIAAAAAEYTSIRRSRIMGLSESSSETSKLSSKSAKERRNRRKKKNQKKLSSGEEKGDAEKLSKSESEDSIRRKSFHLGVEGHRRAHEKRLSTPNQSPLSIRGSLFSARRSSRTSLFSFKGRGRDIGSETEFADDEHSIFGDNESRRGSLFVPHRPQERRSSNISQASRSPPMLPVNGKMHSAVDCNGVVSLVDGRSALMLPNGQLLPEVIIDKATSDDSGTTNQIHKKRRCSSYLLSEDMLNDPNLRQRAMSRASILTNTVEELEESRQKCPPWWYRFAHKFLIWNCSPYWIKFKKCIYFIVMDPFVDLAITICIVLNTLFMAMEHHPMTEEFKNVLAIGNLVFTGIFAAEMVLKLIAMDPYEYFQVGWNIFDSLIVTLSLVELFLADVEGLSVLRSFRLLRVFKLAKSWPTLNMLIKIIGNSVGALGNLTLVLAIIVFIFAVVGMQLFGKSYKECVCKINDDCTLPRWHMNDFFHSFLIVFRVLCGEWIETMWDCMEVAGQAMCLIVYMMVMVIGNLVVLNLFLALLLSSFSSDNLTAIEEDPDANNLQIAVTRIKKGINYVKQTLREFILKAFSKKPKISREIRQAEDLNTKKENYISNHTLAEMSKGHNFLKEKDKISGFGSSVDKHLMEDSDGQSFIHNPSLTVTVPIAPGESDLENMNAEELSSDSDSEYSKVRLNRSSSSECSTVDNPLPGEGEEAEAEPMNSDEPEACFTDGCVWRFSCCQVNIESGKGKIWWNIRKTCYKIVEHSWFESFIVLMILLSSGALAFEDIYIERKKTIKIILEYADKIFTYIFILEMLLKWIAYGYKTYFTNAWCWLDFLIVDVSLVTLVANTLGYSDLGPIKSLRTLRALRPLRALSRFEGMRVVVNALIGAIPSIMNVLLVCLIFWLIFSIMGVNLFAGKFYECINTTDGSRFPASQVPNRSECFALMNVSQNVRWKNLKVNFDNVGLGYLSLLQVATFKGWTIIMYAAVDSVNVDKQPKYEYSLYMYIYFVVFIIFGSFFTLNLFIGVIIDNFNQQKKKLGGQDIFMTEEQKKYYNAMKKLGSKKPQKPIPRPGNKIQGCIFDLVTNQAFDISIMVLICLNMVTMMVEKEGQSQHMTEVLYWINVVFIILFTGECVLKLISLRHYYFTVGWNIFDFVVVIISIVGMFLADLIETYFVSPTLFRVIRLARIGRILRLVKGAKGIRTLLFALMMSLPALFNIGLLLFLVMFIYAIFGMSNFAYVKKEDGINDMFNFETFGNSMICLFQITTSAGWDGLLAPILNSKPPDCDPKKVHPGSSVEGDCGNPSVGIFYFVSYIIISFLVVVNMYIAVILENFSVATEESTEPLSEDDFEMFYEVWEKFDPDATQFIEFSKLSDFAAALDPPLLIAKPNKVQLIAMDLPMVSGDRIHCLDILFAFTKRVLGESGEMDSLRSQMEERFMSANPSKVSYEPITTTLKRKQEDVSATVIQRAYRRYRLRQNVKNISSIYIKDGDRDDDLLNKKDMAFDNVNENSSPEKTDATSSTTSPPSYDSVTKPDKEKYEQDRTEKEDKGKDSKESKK
T1 sequence (Q07699 19-218 partner): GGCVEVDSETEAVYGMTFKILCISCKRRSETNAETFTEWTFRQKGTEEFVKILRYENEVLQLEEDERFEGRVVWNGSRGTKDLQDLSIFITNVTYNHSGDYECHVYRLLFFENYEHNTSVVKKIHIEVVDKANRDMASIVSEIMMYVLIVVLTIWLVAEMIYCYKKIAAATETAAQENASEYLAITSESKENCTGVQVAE

SMILES: NCC[C@@H]1Nc2c(cc(C(F)(F)F)cc2C(F)(F)F)NC1=O [Compound 39, (S)-3-(2-aminoethyl)-5,7-bis(trifluoromethyl)-3,4-dihydroquinoxalin-2(1H)-one]
- hNav1.7: Reduction in current at 20 mV (normalized data) Delta Ratio: −0.08
- hNav1.7: Voltage dependence of activation (mV) VDEP: −7.40 mV
- hNav1.7: Voltage dependence of fast inactivation (mV) VDEP: −3.10 mV
- hNav1.7: Shift in voltage dependence of inactivation (mV) Delta Vhalf: −4.90 mV

SMILES: NC[C@@H]1Nc2c(cc(C(F)(F)F)cc2C(F)(F)F)NC1=O [Compound 40, (S)-3-(aminomethyl)-5,7-bis(trifluoromethyl)-3,4-dihydroquinoxalin-2(1H)-one]
- hNav1.7: Reduction in current at 20 mV (normalized data) Delta Ratio: −0.02
- hNav1.7: Voltage dependence of activation (mV) VDEP: −6.60 mV
- hNav1.7: Voltage dependence of fast inactivation (mV) VDEP: −2.60 mV
- hNav1.7: Shift in voltage dependence of inactivation (mV) Delta Vhalf: −3.90 mV

SMILES: O=C1NC(=O)C(c2cc(C(F)(F)F)cc(C(F)(F)F)c2)N1 (stereo not shown) [Compound 41, 5-(3,5-bis(trifluoromethyl)phenyl) imidazolidine-2,4-dione]
- hNav1.7: Reduction in current at 20 mV (normalized data) Delta Ratio: 0.00
- hNav1.7: Voltage dependence of activation (mV) VDEP: −9.00 mV
- hNav1.7: Voltage dependence of fast inactivation (mV) VDEP: −5.30 mV
- hNav1.7: Shift in voltage dependence of inactivation (mV) Delta Vhalf: −2.80 mV

SMILES: CC1(c2cc(C(F)(F)F)cc(C(F)(F)F)c2)NC(=O)NC1=O (stereo not shown) [Compound 42, 5-(3,5-bis(trifluoromethyl)phenyl)-5-methylimidazolidine-2,4-dione]
- hNav1.7: Reduction in current at 20 mV (normalized data) Delta Ratio: 0.02
- hNav1.7: Voltage dependence of activation (mV) VDEP: −6.60 mV
- hNav1.7: Voltage dependence of fast inactivation (mV) VDEP: −2.50 mV
- hNav1.7: Shift in voltage dependence of inactivation (mV) Delta Vhalf: 0.50 mV

SMILES: CC12CC3CC(C)(C1)CC(NC(=O)[C@H]1CCCN1)(C3)C2 [Compound 43, (2R)-N-(3,5-dimethyladamantan-1-yl)pyrrolidine-2-carboxamide]
- hNav1.7: Reduction in current at 20 mV (normalized data) Delta Ratio: −0.12
- hNav1.7: Voltage dependence of activation (mV) VDEP: −11.40 mV
- hNav1.7: Voltage dependence of fast inactivation (mV) VDEP: −5.70 mV
- hNav1.7: Shift in voltage dependence of inactivation (mV) Delta Vhalf: −8.50 mV

SMILES: O=C(NCC12CC3CC(CC(C3)C1)C2)[C@H]1CCCN1 [Compound 44, (R)-N-(adamantan-1-ylmethyl)pyrrolidine-2-carboxamide]
- hNav1.7: Reduction in current at 20 mV (normalized data) Delta Ratio: −0.11
- hNav1.7: Voltage dependence of activation (mV) VDEP: −13.20 mV
- hNav1.7: Voltage dependence of fast inactivation (mV) VDEP: −6.00 mV
- hNav1.7: Shift in voltage dependence of inactivation (mV) Delta Vhalf: −5.40 mV

SMILES: O=C(NC12CC3CC(CC(C3)C1)C2)[C@@H]1CCCN1 [Compound 45, (S)-N-(adamantan-1-yl)pyrrolidine-2-carboxamide]
- hNav1.7: Reduction in current at 20 mV (normalized data) Delta Ratio: −0.07
- hNav1.7: Voltage dependence of activation (mV) VDEP: −5.10 mV
- hNav1.7: Voltage dependence of fast inactivation (mV) VDEP: −7.00 mV
- hNav1.7: Shift in voltage dependence of inactivation (mV) Delta Vhalf: −6.20 mV

SMILES: CC12CC3CC(C)(C1)CC(NC(=O)CCN)(C3)C2 [Compound 46, 3-amino-N-(3,5-dimethyladamantan-1-yl)propanamide]
- hNav1.7: Reduction in current at 20 mV (normalized data) Delta Ratio: −0.04
- hNav1.7: Voltage dependence of activation (mV) VDEP: −7.90 mV
- hNav1.7: Voltage dependence of fast inactivation (mV) VDEP: −4.50 mV
- hNav1.7: Shift in voltage dependence of inactivation (mV) Delta Vhalf: −1.70 mV

SMILES: O=C(CN1CCNCC1=O)NCC(F)(F)F [Compound 47, 2-(2-oxopiperazin-1-yl)-N-(2,2,2-trifluoroethyl)acetamide]
- hNav1.7: Reduction in current at 20 mV (normalized data) Delta Ratio: −0.02
- hNav1.7: Voltage dependence of activation (mV) VDEP: −8.90 mV
- hNav1.7: Voltage dependence of fast inactivation (mV) VDEP: −4.40 mV
- hNav1.7: Shift in voltage dependence of inactivation (mV) Delta Vhalf: −2.50 mV

More lines, now with the values ahead:

- hNav1.7: Reduction in current at 20 mV (normalized data) Delta Ratio: −0.01
- hNav1.7: Voltage dependence of activation (mV) VDEP: −4.80 mV
- hNav1.7: Voltage dependence of fast inactivation (mV) VDEP: −3.00 mV
- hNav1.7: Shift in voltage dependence of inactivation (mV) Delta Vhalf: −1.80 mV
SMILES: O=C(NCCc1c[nH]c2ccc(F)cc12)[C@@H]1CCCN1 [Compound 48, (S)-N-(2-(5-fluoro-1H-indol-3-yl)ethyl)pyrrolidine-2-carboxamide]

- hNav1.7: Reduction in current at 20 mV (normalized data) Delta Ratio: −0.18
- hNav1.7: Voltage dependence of activation (mV) VDEP: −10.20 mV
- hNav1.7: Voltage dependence of fast inactivation (mV) VDEP: −7.80 mV
- hNav1.7: Shift in voltage dependence of inactivation (mV) Delta Vhalf: −6.40 mV
SMILES: O=C(NC[C@H]1CCCN1)Nc1cc(C(F)(F)F)cc(C(F)(F)F)c1 [Compound 49, (R)-1-(3,5-bis(trifluoromethyl)phenyl)-3-(pyrrolidin-2-ylmethyl)urea]

- hNav1.7: Reduction in current at 20 mV (normalized data) Delta Ratio: 0.02
- hNav1.7: Voltage dependence of activation (mV) VDEP: −8.30 mV
- hNav1.7: Voltage dependence of fast inactivation (mV) VDEP: −2.10 mV
- hNav1.7: Shift in voltage dependence of inactivation (mV) Delta Vhalf: −0.30 mV
SMILES: CC(=O)N1CCC(NC(=O)Nc2ccc(OC(F)(F)F)cc2)CC1 [Compound 50, 1-(1-acetylpiperidin-4-yl)-3-(4-(trifluoromethoxy)phenyl)urea]

- hNav1.7: Reduction in current at 20 mV (normalized data) Delta Ratio: −0.35
- hNav1.7: Voltage dependence of activation (mV) VDEP: −9.5 mV
- hNav1.7: Voltage dependence of fast inactivation (mV) VDEP: −11.5 mV
- hNav1.7: Shift in voltage dependence of inactivation (mV) Delta Vhalf: −20.8 mV
SMILES: N[C@@H](Cc1ccccc1)c1nc2cc(C(F)(F)F)cc(C(F)(F)F)c2[nH]1 [Compound 51, (S)-1-(4,6-bis(trifluoromethyl)-1H-benzo[d]imidazol-2-yl)-2-phenylethan-1-amine]

- hNav1.7: Reduction in current at 20 mV (normalized data) Delta Ratio: −0.28
- hNav1.7: Voltage dependence of activation (mV) VDEP: −7.2 mV
- hNav1.7: Voltage dependence of fast inactivation (mV) VDEP: −8.2 mV
- hNav1.7: Shift in voltage dependence of inactivation (mV) Delta Vhalf: −14.9 mV
SMILES: NC1(c2nc3cc(C(F)(F)F)cc(C(F)(F)F)c3[nH]2)Cc2ccccc2C1 [Compound 52, 2-(4,6-bis(trifluoromethyl)-1H-benzo[d]imidazol-2-yl)-2,3-dihydro-1H-inden-2-amine]

- hNav1.7: Reduction in current at 20 mV (normalized data) Delta Ratio: −0.28
- hNav1.7: Voltage dependence of activation (mV) VDEP: −8.2 mV
- hNav1.7: Voltage dependence of fast inactivation (mV) VDEP: −3.9 mV
- hNav1.7: Shift in voltage dependence of inactivation (mV) Delta Vhalf: −7.2 mV
SMILES: N[C@@H](Cc1ccccc1)Cc1nc2cc(C(F)(F)F)cc(C(F)(F)F)c2[nH]1 [Compound 53, (S)-1-(4,6-bis(trifluoromethyl)-1H-benzo[d]imidazol-2-yl)-3-phenylpropan-2-amine]

- hNav1.7: Reduction in current at 20 mV (normalized data) Delta Ratio: −0.26
- hNav1.7: Voltage dependence of activation (mV) VDEP: −8.6 mV
- hNav1.7: Voltage dependence of fast inactivation (mV) VDEP: −6.2 mV
- hNav1.7: Shift in voltage dependence of inactivation (mV) Delta Vhalf: −15.1 mV
SMILES: N[C@H](Cc1cccc(F)c1)c1nc2cc(C(F)(F)F)cc(C(F)(F)F)c2[nH]1 [Compound 55, (R)-1-(4,6-bis(trifluoromethyl)-1H-benzo[d]imidazol-2-yl)-2-(3-fluorophenyl)ethan-1-amine]

- hNav1.7: Reduction in current at 20 mV (normalized data) Delta Ratio: −0.21
- hNav1.7: Voltage dependence of activation (mV) VDEP: −14.4 mV
- hNav1.7: Voltage dependence of fast inactivation (mV) VDEP: −3.3 mV
- hNav1.7: Shift in voltage dependence of inactivation (mV) Delta Vhalf: −16.8 mV
SMILES: N[C@H](Cc1ccc(F)cc1)Cc1nc2cc(C(F)(F)F)cc(C(F)(F)F)c2[nH]1 [Compound 56, (R)-1-(4,6-bis(trifluoromethyl)-1H-benzo[d]imidazol-2-yl)-3-(4-fluorophenyl)propan-2-amine]

- hNav1.7: Reduction in current at 20 mV (normalized data) Delta Ratio: −0.21
- hNav1.7: Voltage dependence of activation (mV) VDEP: −4.7 mV
- hNav1.7: Voltage dependence of fast inactivation (mV) VDEP: −4.8 mV
- hNav1.7: Shift in voltage dependence of inactivation (mV) Delta Vhalf: −10.4 mV
SMILES: N[C@H](c1ccccc1)c1nc2cc(C(F)(F)F)cc(C(F)(F)F)c2[nH]1 [Compound 57, (R)-(4,6-bis(trifluoromethyl)-1H-benzo[d]imidazol-2-yl)(phenyl)methanamine]

- hNav1.7: Reduction in current at 20 mV (normalized data) Delta Ratio: −0.21
- hNav1.7: Voltage dependence of activation (mV) VDEP: −4 mV
- hNav1.7: Voltage dependence of fast inactivation (mV) VDEP: −4.9 mV
- hNav1.7: Shift in voltage dependence of inactivation (mV) Delta Vhalf: −8.6 mV
SMILES: N[C@@H](c1ccc(F)cc1)c1nc2cc(C(F)(F)F)cc(C(F)(F)F)c2[nH]1 [Compound 58, (S)-(4,6-bis(trifluoromethyl)-1H-benzo[d]imidazol-2-yl)(4-fluorophenyl)methanamine]
